For 31 compounds, IC50 results are on record in PubChem BioAssay AID651569 (Sanford-Burnham Center for Chemical Genomics, 2012).

The source made the active and inactive calls. How the calls were made is not given here.

The subject of this test is luminescent cytotoxicity (cell viability) counter-screen. Briefly: cytotoxicity of Gli-SUFU antagonist hits, dose response, cytotoxicity control for Gli-SUFU antagonist project, cell-based, luminescence, uHTS hits (AID 651569).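 Further: compound exposure lasted overnight before the viability readout.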
On to `C=CCOC(=O)c1[nH]c2c(c1C)C(=O)CC(c1cc(OC)c(OC)c(OC)c1)C2` (stereo unspecified), for which the IC50 is > 20 µM (inactive).

In the case of `O=C(c1cc2nc(-c3ccc(F)cc3)cc(C(F)(F)F)n2n1)N1CCCCC1c1cccnc1` (stereo unspecified), the IC50 was > 20 µM (inactive).

With `CCCC(C)C(=O)Nc1nc(C)c(-c2csc(Nc3ccc(Cl)cc3)n2)s1` (stereo unspecified), the IC50 is > 20 µM (inactive).

`C=CCOc1nc2c(c(=O)n(C)c(=O)n2C)n1Cc1ccc(Cl)cc1`: the IC50 is > 20 µM (inactive).

Turning to `COc1ccccc1-n1c(-c2ccccc2)c[n+]2c1CCc1ccccc1-2`, the IC50 was > 20 µM (inactive).

As for `Cn1c(=O)c2c(nc(NCc3ccco3)n2Cc2ccc(Cl)cc2Cl)n(C)c1=O`, the IC50 was > 20 µM (inactive).

As for `c1ccc(-c2c[n+]3c(n2-c2ccccc2)CCC3)cc1`, the IC50 is > 20 µM (inactive).

Turning to `CC[N+]1=C(C)C(C)(C)c2cc(C)ccc21`, the IC50 was > 20 µM (inactive).

As for `COc1cccc(/C=C/c2ccncc2)c1OC`, the IC50 is > 20 µM (inactive).

For the compound `CC(Sc1nc2ccccc2c(=O)n1C)C(=O)N(C)C1CCCCC1` (stereo unspecified), the IC50 is > 20 µM (inactive).

Consider `CCc1c(C)nc2ncnn2c1N1CCN(S(=O)(=O)c2ccc(OC)cc2)CC1`, for which the IC50 was > 20 µM (inactive).

As to `CC(C)(C)[C@H]1COC(=O)[C@H](NC(=O)OCC2c3ccccc3-c3ccccc32)C/C=C\C[C@@H](CC(=O)N[C@@H](CO)Cc2ccccc2)C(=O)N1`, the IC50 is > 20 µM (inactive).

In the case of `O=C(Nc1cc(N2CCCCC2)ncn1)c1ccccc1`, the IC50 is > 20 µM (inactive).

In the case of `CCCCN(C(C)=O)c1ccc2c(c1)C1CC2CCN1C(=O)OCc1ccccc1` (stereo unspecified), the IC50 is 8.16 µM.

On to `C#CC[N+](C)(C)CCCCCCCCCCCC`, for which the IC50 is > 20 µM (inactive).

As for `O=C(N[C@H]1C/C=C\C[C@@H](CC(=O)N(CCO)Cc2ccccc2)C(=O)N[C@H](Cc2c[nH]c3ccccc23)COC1=O)OCC1c2ccccc2-c2ccccc21`, the IC50 was > 20 µM (inactive).

As to `CC(=O)Nc1cccc(OCC(=O)/C=C2\N(C)c3ccccc3C2(C)C)c1`, the IC50 is > 20 µM (inactive).

`CCOc1ccc(S(=O)(=O)NCc2ccncc2)cc1NC(=O)c1ccccc1`: the IC50 is > 20 µM (inactive).

For `CCOC(=O)c1sc2nc(CC(=O)OC)nc(NCc3ccc(Cl)cc3)c2c1C`, the IC50 is > 20 µM (inactive).

Consider `O=C(N[C@@H]1C/C=C\C[C@H](CC(=O)N(CCO)Cc2ccccc2)C(=O)N[C@@H](Cc2c[nH]c3ccccc23)COC1=O)OCC1c2ccccc2-c2ccccc21`, for which the IC50 was > 20 µM (inactive).

On to `CCOc1ccc(-c2cc(C)[n+](CCO)c(-c3ccc(OCC)cc3)c2)cc1`, for which the IC50 was > 20 µM (inactive).

`CC1Sc2n(c3ccccc3[n+]2C)N=C1c1ccccc1` (stereo unspecified): the IC50 was > 20 µM (inactive).

In the case of `CCCCc1ccc(NC(=O)C(=O)NCCN2CCN(Cc3ccc([N+](=O)[O-])cc3)CC2)cc1`, the IC50 is > 20 µM (inactive).

In the case of `CC(C)(C)c1ccc(CN2C3=NCCCN3c3ccccc32)cc1`, the concentration for half-maximal inhibition (IC50) was 19.1 µM.

Turning to `CN(Cc1ccc(OC(F)F)cc1)C(=O)c1cccc(S(=O)(=O)N2CCN(Cc3ccccc3)CC2)c1`, the IC50 is > 20 µM (inactive).

Consider `Cc1ccc(S(=O)(=O)N2CCN(C(=O)c3ccc(S(=O)(=O)N4CCCC4)cc3)CC2)cc1`, for which the IC50 was > 20 µM (inactive).

On to `O=C(C[C@@H]1C/C=C\C[C@H](NC(=O)OCC2c3ccccc3-c3ccccc32)C(=O)OC[C@H]2CCCN2C1=O)N[C@H](CO)Cc1ccccc1`, for which the IC50 is > 20 µM (inactive).

With `Cc1cc(C)nc(/N=C(\N)Nc2ccccc2-c2ccccc2)n1`, the IC50 was 18.4 µM.

For the compound `Cc1ccc(O)c(NC(=O)COc2cc(C)ccc2C)c1`, the IC50 was > 20 µM (inactive).

As for `O=[N+]([O-])c1ccc(N2CCN(C(=S)NCc3ccc(Cl)cc3)CC2)cc1`, the IC50 is > 20 µM (inactive).

As for `Cc1cc(/C=N/n2cnnc2)c(C)n1-c1ccc(OCc2ccccc2F)cc1`, the IC50 is 16.3 µM.
